According to the NIST ThermoML archive (doi:10.1021/je200508x):
Numbers after ± are expanded uncertainties.

Details: 101.33 kPa, Crystal, Vacuum adiabatic calorimetry

C=C(C)C(=O)[O][Sb]([O]C(=O)C(=C)C)([c]1ccccc1)([c]1ccccc1)[c]1ccccc1 [triphenyl-.lambda.5-stibanediyl bis(2-methylacrylate)]
Details | molar entropy [J/K/mol]
5 K | 0.671 ± 0.029
10 K | 4.78 ± 0.07
15 K | 12.1 ± 0.2
20 K | 21.52 ± 0.2
25 K | 32.28 ± 0.24
30 K | 44.02 ± 0.2
35 K | 56.34 ± 0.23
40 K | 69.14 ± 0.27
45 K | 82.14 ± 0.31
50 K | 95.25 ± 0.35
60 K | 121.6 ± 0.4
70 K | 147.7 ± 0.5
80 K | 173.5 ± 0.6
90 K | 198.9 ± 0.6
100 K | 223.7 ± 0.6
110 K | 247.9 ± 0.7
120 K | 271.6 ± 0.7
130 K | 294.8 ± 0.7
140 K | 317.4 ± 0.8
150 K | 339.7 ± 0.8
160 K | 362.6 ± 0.8
170 K | 384.6 ± 0.9
180 K | 405.6 ± 0.9
190 K | 426.3 ± 0.9
200 K | 446.6 ± 1
210 K | 466.8 ± 1
220 K | 486.7 ± 1
230 K | 506.4 ± 1.1
240 K | 526 ± 1.1
250 K | 545.3 ± 1.1
260 K | 564.5 ± 1.1
270 K | 583.5 ± 1.2
280 K | 602.3 ± 1.2
290 K | 621.1 ± 1.2
298.15 K | 636.3 ± 1.3
300 K | 639.7 ± 1.3
310 K | 658.3 ± 1.3
320 K | 676.9 ± 1.3
330 K | 695 ± 1
340 K | 714 ± 1
350 K | 732 ± 2
360 K | 750 ± 2
370 K | 768 ± 2
380 K | 786 ± 2
390 K | 804 ± 2
400 K | 821 ± 2
